The source of these data is US7371841B2, “Methods of modulating cold sensory perception” (Regents of the University of California, priority 2002, dated 2008).

The target of assay [1] is T1, CMR1 (Rattus norvegicus, UniProt Q8R455, N449H). Description: Two-electrode voltage-clamp of Xenopus oocytes expressing the cloned cold/menthol receptor. Format: cell-based. Details: open reading frame of 3312 bp that is predicted to encode a protein of 1104 amino acids; expressed in transfected cells; host or cells: Xenopus laevis oocytes (cRNA injection). Particulars: for electrophysiological response of receptor-expressing oocytes: menthone, camphor, cyclohexanol applied near limits of solubility (>500 μM); for EC50: room temperature, voltage clamp at -60 mV. The procedure:
cRNA transcripts were synthesized and injected into Xenopus laevis oocytes as described (Brake, supra). Two-electrode voltage-clamp recordings were performed 2-7 days post-injection. Dose-response curves for cooling compounds were performed at room temperature (22-24° C.). AG-3-5 (icilin) was provided by Dr. E. Wei, University of California, Berkeley. Temperature ramps were generated by heating (˜35° C.) or cooling (˜4° C.) the perfusate in a Harvard coil and monitoring temperature changes with a thermister placed near the oocyte.
In general terms: In two-electrode clamp one electrode senses voltage and the other passes current.

The test system of assay [2] is trigeminal neurons. Kind of assay: Whole-cell patch-clamp recordings of dissociated trigeminal neurons. Format: cell-based, rat. Particulars: for membrane currents elicited in trigeminal neurons: compared to an equivalent dose of menthol. On the procedure:
Trigeminal ganglia were removed from newborn S/D rats, placed in ice-cold culture medium (MEM Eagle's with Earle's BSS supplemented with 10% horse serum, vitamins, penicillin/streptomycin and L-glutamine), cleaned of connective tissue/blood vessels and diced into 4-5 pieces. Ganglia were then transferred to 0.125% collagenase P (Boehringer) solution in CMF Hank's, shaken gently at 37° C. for 20 (P0 animals) to 30 min (P4 animals), pelleted, and resuspended in 0.05% STV at 37° C. for 2 min. Culture medium was added to inhibit enzymatic activity and ganglia were triturated gently with a fire-polished Pasteur pipette. Neurons were enriched by density gradient centrifugation as described (see, e.g., Eckert et al., J. Neurosci. Methods 77:183-90, 1997). Cells were resuspended in complete culture medium (MEM Eagle's/Earle's BSS with 10% horse serum, vitamins, penicillin/streptomycin, L-glutamine and 100 ng/ml NGF 7S (Invitrogen) and plated onto glass coverslips coated with PLO (1 mg/ml, Sigma) and laminin (5 μg/ml, Invitrogen). Cultures were maintained at 37° C. in 5% CO2 and examined 1-2 days after plating. Ca^2+ microfluorimetry was carried out as described (Caterina et al., Nature 389:816-24 (1997)). For cell selection prior to patch-clamp analysis, CaCl2 and pluronic acid were omitted from the loading buffer (nominally Ca^2+-free CIB). Cells in the recording chamber were perfused by gravity using the VC-6 valve control system (Warner Inst.).
Trigeminal neurons responding to […] menthol with an increase in intracellular Ca2+ were selected for patch-clamp recordings. HEK293 cells were cultured in DMEM with 10% fetal bovine serum and co-transfected (Lipofectamine 2000, Invitrogen) with 1 μg CMR1 plasmid and 0.1 μg enhanced green fluorescence reporter plasmid to identify transfected cells. Cells were plated onto PLO-coated coverslips the next day and examined two days after transfection. Gigaseals were formed with pipettes (Garner Glass type 7052, ID 1.1, OD 1.5) having a resistance of 3-5 MΩ in standard pipette solution. Whole-cell voltage clamp was performed at a holding potential of −60 mV with a 200 ms voltage ramp from −120 mV to +80 mV at 3.6 Hz. Data were acquired using Pulse-Pulsefit (HEKA GmbH) software. Recordings were filtered at 5 kHz and sampled at 20 kHz. Pipette solution for neuronal experiments contained (in mM) 140 CsCl, 1 EGTA, 0.6 MgCl2, 10 HEPES, pH 7.4 (adjusted with CsOH). Standard Ca^2+-free bath solution for whole-cell recordings contained (in mM) 140 NaCl, 4 KCl, 2 MgCl2, 100 nM TTX (Sigma), 10 TRIS, pH 7.4 (adjusted with HCl) with or without 100 nM dendrotoxin I (Sigma). For ion replacement experiments, pipette solution contained (in mM) 140 KCl, 5 CsCl, 1 EGTA, 0.6 MgCl2, 1 4-aminopyridine, 10 HEPES, pH 7.4 (adjusted with KOH). Bath solution contained (in mM) 140 NaCl, 4 KCl, 2 MgCl2, 100 nM TTX, 100 nM dendrotoxin I, 100 nM apamine (Sigma), 100 nM carybdotoxin (Sigma), 1 μω-conotoxin MVIIC, 1 μM GVIA (Latoxan), 10 TRIS, pH 7.4 (adjusted with HCl). For monovalent cation permeability experiments perfusate contained (in mM) 140 NaCl (or 140 KCl or 140 NMDG), 100 nM TTX, 1 μM nitrendipine (Sigma), 10 HEPES, 10 glucose, pH 7.4 (adjusted with NaOH, KOH or HCl, respectively). For divalent cation permeability experiments perfusate contained (in mM) 125 NMDG, 10 CaCl2, 100 nM TTX, 1 μM nitrendipine, 10 HEPES, 10 glucose, pH 7.4 (adjusted with HCl). […]
In general terms: In patch-clamp work, channel activity is measured electrically.

The target of assay [3] is T1, CMR1. Description: Whole-cell patch-clamp of CMR1-transfected HEK293 cells. Details: open reading frame of 3312 bp that is predicted to encode a protein of 1104 amino acids; expressed in transfected cells. The class given is cell-based. The procedure: Trigeminal neurons responding to […] menthol with an increase in intracellular Ca2+ were selected for patch-clamp recordings. HEK293 cells were cultured in DMEM with 10% fetal bovine serum and co-transfected (Lipofectamine 2000, Invitrogen) with 1 μg CMR1 plasmid and 0.1 μg enhanced green fluorescence reporter plasmid to identify transfected cells. Cells were plated onto PLO-coated coverslips the next day and examined two days after transfection. Gigaseals were formed with pipettes (Garner Glass type 7052, ID 1.1, OD 1.5) having a resistance of 3-5 MΩ in standard pipette solution. Whole-cell voltage clamp was performed at a holding potential of −60 mV with a 200 ms voltage ramp from −120 mV to +80 mV at 3.6 Hz. Data were acquired using Pulse-Pulsefit (HEKA GmbH) software. Recordings were filtered at 5 kHz and sampled at 20 kHz. Pipette solution for neuronal experiments contained (in mM) 140 CsCl, 1 EGTA, 0.6 MgCl2, 10 HEPES, pH 7.4 (adjusted with CsOH). Standard Ca^2+-free bath solution for whole-cell recordings contained (in mM) 140 NaCl, 4 KCl, 2 MgCl2, 100 nM TTX (Sigma), 10 TRIS, pH 7.4 (adjusted with HCl) with or without 100 nM dendrotoxin I (Sigma). For ion replacement experiments, pipette solution contained (in mM) 140 KCl, 5 CsCl, 1 EGTA, 0.6 MgCl2, 1 4-aminopyridine, 10 HEPES, pH 7.4 (adjusted with KOH). Bath solution contained (in mM) 140 NaCl, 4 KCl, 2 MgCl2, 100 nM TTX, 100 nM dendrotoxin I, 100 nM apamine (Sigma), 100 nM carybdotoxin (Sigma), 1 μω-conotoxin MVIIC, 1 μM GVIA (Latoxan), 10 TRIS, pH 7.4 (adjusted with HCl). For monovalent cation permeability experiments perfusate contained (in mM) 140 NaCl (or 140 KCl or 140 NMDG), 100 nM TTX, 1 μM nitrendipine (Sigma), 10 HEPES, 10 glucose, pH 7.4 (adjusted with NaOH, KOH or HCl, respectively). For divalent cation permeability experiments perfusate contained (in mM) 125 NMDG, 10 CaCl2, 100 nM TTX, 1 μM nitrendipine, 10 HEPES, 10 glucose, pH 7.4 (adjusted with HCl). […] Bath solution for on-cell single channel experiments contained (in mM): 150 NaCl, 1 MgCl2, 10 TRIS. Pipette solution for on-cell single channel experiments contained (in mM): 150 NaCl, 1 MgCl2, 0.1 EGTA, 10 TRIS and 5 or 25 μM menthol. Recordings were performed at 22° C. unless noted otherwise. Temperature ramps were generated by cooling or heating the perfusate in a jacketed coil (Harvard Inst.) connected to a thermostat. Temperature in the proximity of the patched cell was measured using a miniature thermocouple (type MT-29/2, Physitemp) and sampled using an ITC-18 A/D board (Instrutech) and Pulse software. Permeability ratios for monovalent cations to Na (PX/PNa) were calculated according to: PX/PNa=exp(ΔErev(Na-X)F/RT), where ΔErev(Na-X) equals the reversal potential change, F the Faraday's constant, R the universal gas constant and T the absolute temperature. For measurements of Ca^2+ permeability PCa/PNa was calculated according to Lewis, C. A. J. Physiol. 286:417-45, 1979, (equation A6).

Assay [4] deals with trigeminal neurons. Description: Calcium imaging (Fura-2) of dissociated trigeminal neurons. Format: cell-based, rat. Particulars: capsaicin 1 μM. On the procedure: Trigeminal ganglia were removed from newborn S/D rats, placed in ice-cold culture medium (MEM Eagle's with Earle's BSS supplemented with 10% horse serum, vitamins, penicillin/streptomycin and L-glutamine), cleaned of connective tissue/blood vessels and diced into 4-5 pieces. Ganglia were then transferred to 0.125% collagenase P (Boehringer) solution in CMF Hank's, shaken gently at 37° C. for 20 (P0 animals) to 30 min (P4 animals), pelleted, and resuspended in 0.05% STV at 37° C. for 2 min. Culture medium was added to inhibit enzymatic activity and ganglia were triturated gently with a fire-polished Pasteur pipette. Neurons were enriched by density gradient centrifugation as described (see, e.g., Eckert et al., J. Neurosci. Methods 77:183-90, 1997). […]

Setting [5] is: normalized to 500 μM menthol, read-out: EC50 of evoked membrane currents.

Read-outs that look alike come from different tables or passages of the source.

T1 sequence (Q8R455 whole entry N449H): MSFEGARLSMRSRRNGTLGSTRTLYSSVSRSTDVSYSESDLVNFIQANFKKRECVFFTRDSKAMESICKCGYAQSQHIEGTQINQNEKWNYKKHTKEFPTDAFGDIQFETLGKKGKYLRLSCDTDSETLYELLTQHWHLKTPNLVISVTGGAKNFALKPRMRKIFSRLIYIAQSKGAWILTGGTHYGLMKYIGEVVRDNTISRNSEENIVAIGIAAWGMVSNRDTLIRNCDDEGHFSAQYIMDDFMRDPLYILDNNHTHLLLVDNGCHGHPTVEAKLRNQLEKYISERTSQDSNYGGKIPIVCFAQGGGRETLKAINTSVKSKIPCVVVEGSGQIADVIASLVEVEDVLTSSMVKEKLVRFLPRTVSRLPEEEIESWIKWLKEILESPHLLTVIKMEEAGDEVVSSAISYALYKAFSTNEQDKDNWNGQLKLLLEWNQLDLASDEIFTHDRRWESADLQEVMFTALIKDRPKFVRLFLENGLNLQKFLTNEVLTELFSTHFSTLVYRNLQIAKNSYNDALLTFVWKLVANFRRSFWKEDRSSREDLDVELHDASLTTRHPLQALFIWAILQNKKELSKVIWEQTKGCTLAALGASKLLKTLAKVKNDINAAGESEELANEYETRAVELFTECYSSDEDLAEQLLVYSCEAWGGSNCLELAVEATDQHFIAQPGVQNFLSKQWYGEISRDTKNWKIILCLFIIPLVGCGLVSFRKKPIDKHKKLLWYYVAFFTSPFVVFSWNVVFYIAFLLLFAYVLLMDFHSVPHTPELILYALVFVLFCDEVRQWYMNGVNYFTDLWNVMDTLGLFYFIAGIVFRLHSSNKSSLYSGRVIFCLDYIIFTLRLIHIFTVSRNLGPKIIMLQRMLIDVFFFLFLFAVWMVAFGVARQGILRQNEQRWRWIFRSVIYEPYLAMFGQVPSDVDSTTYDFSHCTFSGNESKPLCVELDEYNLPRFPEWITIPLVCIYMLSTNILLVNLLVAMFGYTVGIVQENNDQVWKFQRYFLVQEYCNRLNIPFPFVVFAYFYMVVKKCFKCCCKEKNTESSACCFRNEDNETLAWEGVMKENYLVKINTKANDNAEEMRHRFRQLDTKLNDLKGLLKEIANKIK

As for `CC12CCC(CC1=O)C2(C)C` (stereo not shown) [camphor], the “electrophysiological response of receptor-expressing oocytes” value (“electrophysiological response” for short) at CMR1 [1] was “little or no effect”.

Turning to `CC12CCC(CC1)C(C)(C)O2` [Eucalyptol], the EC50 at CMR1 [1] (read-out: potency (EC50) of evoked membrane currents) is 3400 ± 400 µM.

As to `OC1CCCCC1` [cyclohexanol], the “membrane currents elicited in trigeminal neurons” value with trigeminal neurons [2] was “no effect”.

As to `O=C1NC(c2cccc([N+](=O)[O-])c2)=CCN1c1ccccc1O` [icilin], at CMR1 [1], the “efficacy compared to menthol” value is reported as roughly 2.5 fold and the “electrophysiological response” value is on record as “Robust responses”. Also, at CMR1 [1] (ratio of EC50 values), the “potency relative to menthol” value is roughly 200 fold. On CMR1 [1] (setting [5]), the EC50 is 0.36 ± 0.03 µM. Further, the “desensitization of evoked currents relative to peak currents” value on CMR1 [3] (20 s after application, n=3) is 78.8±17%. The “activity in the absence of extracellular calcium” value on CMR1 [3] (no extracellular calcium) was “essentially inactive”.

Take `CC1CCC(C(C)C)C(O)C1` (stereo not shown) [menthol]: the “electrophysiological response” value at CMR1 [1] is “Robust responses”. The EC50 at CMR1 [1] (setting [5]) was 66.7 ± 3.3 µM; in the assay on trigeminal neurons [2] (Rattus norvegicus, Neuron, room temperature, Vhold=-60 mV, currents normalized to 1 mM menthol, read-out: half-maximal effective concentration (EC50) of evoked inward currents), 80 ± 2.4 µM. Moreover, the “saturation temperature of cold-activated currents in the presence of the compound” value at CMR1 [1] (sub-activating menthol (20 mM printed), without menthol 8.2±0.3° C., n=7) is 15.6±0.4 °C. In addition, at CMR1 [1] (sub-activating menthol (20 mM printed), without menthol 25.8±0.4° C., n=7), the “threshold temperature of cold-activated currents in the presence of the compound” value is 29.7±0.3 °C. Besides, the “thermal threshold of cold-evoked currents in the presence of the compound” value in the assay on trigeminal neurons [2] (10 μM menthol, threshold without menthol 27.1±0.5° C., n=4) amounted to 29.6±0.3 °C. In addition, the “Hill coefficient (η)” value with trigeminal neurons [2] (fit of concentration-response data to the Hill equation) turned out to be 2.2. Besides, the “desensitization: decrease in peak current between first and second application” value is reported as 53.9±1.7% at CMR1 [3] (2.5 mM extracellular Ca2+, n=3) and 9.1±7% at CMR1 [3] (nominally calcium-free bath solution, n=3). Besides, at CMR1 [3] (sub-activating dose 10 μM menthol), the “effect on cold-evoked currents” value is on record as “markedly potentiated”.

For the molecule `COc1cc(CNC(=O)CCCC/C=C/C(C)C)ccc1O` [capsaicin], the “electrophysiological response” value at CMR1 [1] is listed as “did not elicit responses”. Also, in the assay on trigeminal neurons [4], the “fraction of menthol/cold-sensitive neurons also activated” value was 54.5±6.1%.

On to `CC(C)[C@@H]1CC[C@@H](C)CC1=O` [menthone], for which the “membrane currents elicited in trigeminal neurons” value in the assay with trigeminal neurons [2] is recorded as “very small currents”.
